Results published in US7741520B2, “Sulfonanilide analogs as selective aromatase modulators (SAMs)” (The Ohio State University Research Foundation, priority 2006, dated 2010).

Assays:
[1] = system: aromatase activity in SK-BR-3 breast cancer cells; test: Aromatase tritiated water-release assay in SK-BR-3 cell lines (first compound set); type: cell-based, human; settings: SK-BR-3 cells, 24 h treatment; five concentrations, each in triplicate; read-out: IC50 (μM), suppression of aromatase activity in SK-BR-3 breast cancer cells
Method: Aromatase Tritiated Water-Release Assay in SK-BR-3 Cell Lines. SK-BR-3 cells were obtained from ATCC (Rockville, Md.). Cell cultures were maintained in phenol red-free custom media (MEM, Earle's salts, 1.5× amino acids, 2× nonessential amino acids, L-glutamine, 1.5× vitamins, Gibco BRL) supplemented with 10% fetal bovine serum (FBS), 2 mM L-glutamine, and 20 mg/L gentamycin. Measurement of aromatase enzyme activity was based on the tritium water release assay. 24 Cells in 100 mm Petri dish were treated with 0.1% DMSO (control), and inhibitors at the indicated concentrations. After 24 h, the media was changed and the cells were incubated with 100 nM [1â-3H]-androst-4-ene-3,17-dione ([…]) for 3 h. Subsequently, the reaction mixture was removed, and proteins were precipitated using 10% trichloroacetic acid at 42° C. for 20 min. After a brief centrifugation, the media was extracted three times with an equal amount of chloroform to extract unused substrate and further dextran-treated charcoal. After centrifugation, a 250-μL aliquot containing the product was counted in 5 mL of liquid scintillation mixture. Results were corrected for blanks and for the cell contents of culture flasks, and results were expressed as picomoles of 3H2O formed per hour incubation time per million live cells (pmol/h/10^6 cells). To determine the amount of cells in each flask, the cells were trypsinized and analyzed using the diphenylamine DNA assay adapted to a 96-well plate. (Natarajan N.; Shambaugh, G. E., 3rd; Elseth K. M.; Haines G. K.; Radosevich J. A. Adaptation of the diphenylamine (DPA) assay to a 96-well plate tissue culture format and comparison with the MTT assay. Biotechniques 1994, 17, 166-171; incorporated herein by reference). IC50 sigmoidal dose-response data were analyzed with Microsoft Excel and the Graphpad Prism (Version 3.0) program.

[2] = system: PGE2 production in MDA-MB-231 cells; test: Enzyme immunoassay of PGE2 in MDA-MB-231 cells (COX-2 inhibitory activity); type: cell-based, human; settings: 25 μM, 24 h (FIG. 4)
Method: Enzyme Immunoassay of PGE2 in MDA-MB-231 Cells. MDA-MB-231 cells were obtained from ATCC (Rockville, Md.). Cell cultures were maintained in phenol red-free custom media (MEM, Earle's salts, 1.5× amino acids, 2× nonessential amino acids, L-glutamine, 1.5× vitamins, Gibco BRL) supplemented with 10% fetal bovine serum (FBS), 2 mM L-glutamine and 20 mg/L gentamycin. To study PGE2 synthesis in cell culture media, experiments were performed in […] Petri dishes. An aliquot of MDA-MB-231 cells (15×10^4 cells) were added to each dish and then incubated overnight to allow the cells to adhere to the dish. After that, cells were serum starved in defined media for 24 h. This step was followed by replacement of media with fresh media containing either vehicle (DMSO) or the indicated concentration of agents. After 24 h incubation at 37° C. the media were collected and the amount of PGE2 was determined by ELISA (Cayman Chemical) according to the protocol provided by the manufacturer. PGE2 concentration was normalized to total protein. Total proteins were extracted from adhered cells by 30 min treatment with 0.5 M NaOH at room temperature and shaking. Protein concentrations in these extracts were determined using a protein assay method (Bio-Rad Laboratories, Inc., Hercules, Calif.).

[3] = biological target: T1, aromatase activity in JAR choriocarcinoma placental cells (Homo sapiens, UniProt P11511); test: Tritiated water-release assay in JAR cells; type: cell-based
T1 construct: JAR choriocarcinoma placental cells (which produce aromatase expression from promoter I.1 mediated by protein kinase C); host or cells: JAR
T1 sequence (P11511 1-503): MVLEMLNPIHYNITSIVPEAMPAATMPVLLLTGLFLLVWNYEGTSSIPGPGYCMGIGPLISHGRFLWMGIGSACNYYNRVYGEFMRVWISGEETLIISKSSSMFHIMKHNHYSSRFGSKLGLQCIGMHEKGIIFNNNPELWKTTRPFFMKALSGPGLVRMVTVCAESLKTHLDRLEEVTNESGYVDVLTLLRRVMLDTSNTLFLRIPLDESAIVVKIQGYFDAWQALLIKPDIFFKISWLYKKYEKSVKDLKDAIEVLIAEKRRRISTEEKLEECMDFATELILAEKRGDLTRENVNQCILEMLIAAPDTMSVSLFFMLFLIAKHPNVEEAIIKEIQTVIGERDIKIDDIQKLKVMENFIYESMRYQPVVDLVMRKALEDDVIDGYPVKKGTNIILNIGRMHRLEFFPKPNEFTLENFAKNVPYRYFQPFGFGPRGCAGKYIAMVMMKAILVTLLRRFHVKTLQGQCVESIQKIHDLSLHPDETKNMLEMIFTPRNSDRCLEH
Method: (§1) Cell Culture. AR and SK-BR-3 cells were obtained from ATCC (Rockville, Md.). SK-BR-3 cells were maintained in phenol red-free custom media (MEM, Earle's salts, 1.5× amino acids, 2× non-essential amino acids, L-glutamine, 1.5× vitamins, Gibco BRL) supplemented with 10% fetal bovine serum (FBS), 2 mM L-glutamine and 20 mg/L gentamycin. JAR cells were maintained in RPMI 1640 medium with 2 mM L-glutamine adjusted to contain 1.5 g/L sodium bicarbonate, 4.5 g/L glucose, 10 mM HEPES, and 1.0 mM sodium pyruvate, 90%; FBS, 10%. Fetal bovine serum was heat inactivated for 30 min in a 56° C. water bath before use. Cell cultures were grown at 37° C., in a humidified atmosphere of 5% CO2 in a Hereaus CO2 incubator. For all experiments, cells were plated in 6 well plates and grown to subconfluency. Before treatment, the media was changed to a defined one containing DMEM/F12 media (Sigma) with 1.0 mg/mL human albumin (OSU Hospital Pharmacy), 5.0 mg/L human transferin and 5.0 mg/L bovine insulin.
(§2) Tritiated water-release assay in JAR and SK-BR-3 cell lines. Measurement of aromatase enzyme activity was based on the tritium water release assay. Cells in six well plates were treated with 0.1% DMSO (control), and inhibitors at the indicated concentrations. After 24 hours, the cells were incubated 3 hours (SK-BR-3 cells) or 1 hour (JAR cells) with fresh media along with 100 nM [1β-^3H]-androst-4-ene-3,17-dione (1 μCi). Subsequently, the reaction mixture was removed, and proteins were precipitated using 10% trichloroacetic acid at 42° C. for 20 min. After a brief centrifugation, the media was extracted three times with an equal amount of chloroform to remove remaining substrate and further treated with dextran-treated charcoal. After centrifugation, a 250-μl aliquot containing the product was counted in 5 ml of liquid scintillation mixture. Results were corrected for blanks and for the cell contents of culture flasks, and results were expressed as picomoles of ^3H2O formed per hour incubation time per million live cells (pmol/h/10^6 cells). To determine the amount of cells in each flask, the cells were lysed and analyzed using the diphenylamine DNA assay adapted to a 96-well plate. IC50 sigmoidal dose-response data were analyzed with Microsoft Excel and the Graphpad Prism (Version 3.0) program.
(§3) Diphenylamine DNA Assay To determine the amount of viable cells in each flask, the cells were lysed with 0.5N NaOH aqueous solution and analyzed using the diphenylamine DNA assay adapted to a 96-well plate. DNA standards (0-30 μg) were prepared using double-stranded DNA reconstituted in PBS and added in triplicates directly to the wells. A uniform cell suspension was prepared from the 6 well plate in 300 μl 0.5N NaOH aqueous solution, and 60 μl of the unknown samples were added in triplicates to separate wells. A solution of 0.16% acetaldehyde in water was prepared and mixed at a 1:5 ratio with perchloric acid (20% vol/vol). This solution (60 μl) was added to each well along with 100 μl of a 4% diphenylamine solution in glacial acetic acid. The plates were incubated at 37° C. for 24 hours. After centrifugation, 100 μl supernatant of each well was transferred to a new 96 well plate, and the OD595 was measured using a microplater reader. The DNA concentration was determined by extrapolation to the standard curve and the amount of cells/well was calculated using the equation: 1 cell≈7 pg DNA.

[4] = system: aromatase activity in SK-BR-3 breast cancer cells; test: Tritiated water-release assay in SK-BR-3 cells (additional compounds); type: cell-based, human
Method: as §1, with “JAR cells were maintained in RPMI 1640 medium with 2 mM L-glutamine adjusted to contain 1.5 g/L sodium bicarbonate, 4.5 g/L glucose, 10 mM HEPES, and 1.0 mM sodium pyruvate, 90%; FBS, 10%.” left out
as §2
as §3, with “A solution of 0.16% acetaldehyde in water was prepared and mixed at a 1:5 ratio with perchloric acid (20% vol/vol).” left out

| SMILES | IC50 [1] [µM] | inhibition at 15 µM ([3]; 24 h, 15 μM (FIG. 11), read-out: decrease of aromatase activity in JAR cells) [%] | melting point [°C] | IC50 ([4]; dose-response (FIG. 13), read-out: IC50 (μM), suppression of aromatase activity in SK-BR-3 breast cancer cells) [µM] | PGE2 production (COX-2 inhibitory activity) [2] | aromatase suppression activity in JAR cells (in words) ([3]; 15 μM) | decrease of aromatase activity in SK-BR-3 cells (in words) ([4]; 2.5 μM) |
| --- | --- | --- | --- | --- | --- | --- | --- |
| CC1CCCCC1Oc1cc([N+](=O)[O-])ccc1NS(C)(=O)=O (stereo not drawn) [Compound 11, N-(2-Methylcyclohexyloxy-4-nitrophenyl)methanesulfonamide] | 1.21 |  |  |  | did not show any COX-2 inhibitory activity |  |  |
| CS(=O)(=O)Nc1ccc([N+](=O)[O-])cc1OC1CCCC1 [Compound 12, N-(2-Cyclopentyloxy-4-nitrophenyl)methanesulfonamide] | 0.87 |  | 139 to 140 |  | significantly decrease in PGE2 production |  |  |
| CN(c1ccc([N+](=O)[O-])cc1OC1CCCC1)S(C)(=O)=O [Compound 21, N-Methyl-N-(2-cyclopentyloxy-4-nitrophenyl)methanesulfonamide] | 0.44 |  | 102 to 104 |  | did not show any inhibitory activity |  |  |
| CC1CCCCC1Oc1cc([N+](=O)[O-])ccc1N(C)S(C)(=O)=O (stereo not drawn) [Compound 20, N-Methyl-N-(2-methylcyclohexyloxy-4-nitrophenyl)methanesulfonamide] | 0.96 |  |  |  | did not show any inhibitory activity |  |  |

More lines, main results first:

| IC50 [1] [µM] | inhibition at 15 µM ([3]; 24 h, 15 μM (FIG. 11), read-out: decrease of aromatase activity in JAR cells) [%] | melting point [°C] | IC50 ([4]; dose-response (FIG. 13), read-out: IC50 (μM), suppression of aromatase activity in SK-BR-3 breast cancer cells) [µM] | SMILES | PGE2 production (COX-2 inhibitory activity) [2] | aromatase suppression activity in JAR cells (in words) ([3]; 15 μM) | decrease of aromatase activity in SK-BR-3 cells (in words) ([4]; 2.5 μM) |
| --- | --- | --- | --- | --- | --- | --- | --- |
|  | < 50 | 193 to 195 |  | CS(=O)(=O)Nc1ccc([N+](=O)[O-])cc1OCc1cccc2ccccc12 [Compound 38b, N-[2-(α-naphthylmethoxy) 4-nitrophenyl]methanesulfonamide] |  | inhibited aromatase activity in both JAR cells and SK-BR-3 cells | inhibited aromatase activity in both JAR cells and SK-BR-3 cells |
|  |  |  | 27 | CS(=O)(=O)Nc1ccc([N+](=O)[O-])cc1Oc1ccccc1 [Nimesulide, N-(2-phenoxy-4-nitrophenyl)-methanesulfonamide, reference compound] |  |  |  |
